What was measured:
[1] = Pharmacokinetic measurement by mass spectrometry in mice; assay type: in vivo, C57BL/6 mice
[2] = Rat blood pressure telemetry; assay type: in vivo, DIO male Long-Evans rats; details: IP 0.3, 1, 3 mg/kg, DIO Long-Evans rats
[3] = Food intake study with free-hand ICV injection; assay type: in vivo, male C57BL/6 mice; details: 3 μg per mouse ICV
[4] = Chronic OXT analog treatment in DIO mice; assay type: in vivo, C57BL/6 DIO mice; details: vs vehicle
human OXTR = target: T1, human OXTR (Homo sapiens, UniProt P30559); assay: FLIPR calcium assay, AV12 cells stably expressing human OXTR; assay type: cell-based; details: Fig. 1 and Dryad data [67]; for receptor selectivity against vasopressin receptors (in words): OXTR vs V1a, V1b (FLIPR) and V2 (cAMP); for OXTR activity / potency (in words): in vitro OXTR assay
T1 sequence (P30559 1-389): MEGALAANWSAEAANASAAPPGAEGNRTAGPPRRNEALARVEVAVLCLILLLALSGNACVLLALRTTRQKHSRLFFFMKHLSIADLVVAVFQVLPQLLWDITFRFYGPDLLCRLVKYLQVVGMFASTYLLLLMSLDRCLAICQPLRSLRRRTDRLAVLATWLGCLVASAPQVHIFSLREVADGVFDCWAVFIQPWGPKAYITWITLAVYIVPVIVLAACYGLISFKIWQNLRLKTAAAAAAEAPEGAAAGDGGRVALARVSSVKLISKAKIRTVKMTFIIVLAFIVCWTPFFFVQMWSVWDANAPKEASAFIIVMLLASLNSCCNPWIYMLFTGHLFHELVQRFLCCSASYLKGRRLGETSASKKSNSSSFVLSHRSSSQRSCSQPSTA

Acute food intake study = assay type: in vivo, male C57BL/6 mice; details: conivaptan 0.5 mg/kg IP coadministered with OXT 2 mg/kg IP, Fig. 3F
[5] = C57BL/6, mouse, plasma, ip, 1 mg/kg

Question: For `CC[C@H](C)[C@@H]1NC(=O)[C@H](Cc2ccc(O)cc2)NC(=O)[C@@H](N)CSSC[C@@H](C(=O)N2CCC[C@H]2C(=O)N[C@@H](CC(C)C)C(=O)NCC(N)=O)NC(=O)[C@H](CC(N)=O)NC(=O)[C@H](CCC(N)=O)NC1=O` [OXT, oxytocin], which “time until plasma level dropped below detection” value ([1]; 1 mg/kg IP, single dose, Fig. 2A) is on record?
Answer: < 3 h

Question: What about the Tmax [1, 5] of the same compound?
Answer: ~30 min

Question: And the half-life [1, 5]?
Answer: < 30 min

Question: What about the “mean arterial pressure (MAP)” value [2] of the same compound?
Answer: dose-dependently caused a statistically significant increase of MAP

Question: What about the “behavior during first hour after ICV injection (vocalization, grooming)” value [3] of the same compound?
Answer: clinical signs of behavioral distress

Question: What about the serum potassium level [4] of the same compound?
Answer: significantly lower

Question: What does the source list for TC OT39?
Answer: receptor selectivity against vasopressin receptors (in words) (human OXTR): high degree of OXTR selectivity; OXTR activity / potency (in words) (human OXTR): significantly decreased potency (EC50) and efficacy (Emax)

Question: For `Cc1nc2c([nH]1)-c1ccccc1N(C(=O)c1ccc(NC(=O)c3ccccc3-c3ccccc3)cc1)CC2` [conivaptan], which “effect on OXT-induced food intake suppression” value (Acute food intake study) is on record?
Answer: abolished OXT’s effect on food intake suppression

Question: For carbetocin [OXT^Butyryl], which “receptor selectivity against vasopressin receptors (in words)” value (human OXTR) is on record?
Answer: increased receptor selectivity against vasopressin receptors

Question: And the “OXTR activity / potency (in words)” value (human OXTR)?
Answer: without affecting OXTR activation
